Experimental data from PubChem BioAssay (NCI).
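Each compound was tested at five concentrations against cells in 96-well plates for 48 hours. TGI is the concentration that stops growth completely.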

Tests used:
Test in all cases: NCI tumour cell line growth inhibition, 48 h
HOP-92 NSCLC = test system: HOP-92 NSCLC
OVCAR-8 ovarian = test system: OVCAR-8 ovarian
SK-MEL-28 melanoma = test system: SK-MEL-28 melanoma
UACC-62 melanoma = test system: UACC-62 melanoma
NCI-H460 lung = test system: NCI-H460 lung
RPMI-8226 leukemia = test system: RPMI-8226 leukemia
HCT-15 colon = test system: HCT-15 colon
OVCAR-4 ovarian = test system: OVCAR-4 ovarian
MALME-3M melanoma = test system: MALME-3M melanoma

| Structure (SMILES) | TGI (HOP-92 NSCLC) [µM] | TGI (OVCAR-8 ovarian) [µM] | TGI (SK-MEL-28 melanoma) [µM] | TGI (UACC-62 melanoma) [µM] | TGI (NCI-H460 lung) [µM] | TGI (RPMI-8226 leukemia) [µM] | TGI (HCT-15 colon) [µM] | TGI (OVCAR-4 ovarian) [µM] | TGI (MALME-3M melanoma) [µM] |
| --- | --- | --- | --- | --- | --- | --- | --- | --- | --- |
| Cc1ccc(/C=C/C(=N/NC(=O)N/N=C(/C=C/c2ccc(C)cc2)C(C)(C)CN2CCCCC2)C(C)(C)CN2CCCCC2)cc1 | 3.44 | 2.88 | 3.18 | 4.02 | 3.08 | 0.897 | 3.25 | 4.26 | 3.07 |
| O=C(O)c1ccccc1/C=N/NC1=NCCCCN1 | > 100 | > 100 | > 100 | > 100 | > 100 | > 100 | > 100 | > 100 | > 100 |
| CN1CCC23c4c5ccc(O)c4OC2c2[nH]c4ccccc4c2CC3(O)C1C5 (stereo not given) | 40.5 | > 100 | 28.4 | 53.5 | > 100 | 55 | > 100 | > 100 | 36.8 |
| CCS(=O)(=O)CCn1cnc2c1c(=O)n(C)c(=O)n2C | > 100 | > 100 | > 100 | > 100 | > 100 |  | > 100 | > 100 |  |
| C=CC[C@@H]1C(=O)[C@@]2(O[Si](C(C)C)(C(C)C)C(C)C)CC[C@@H]1C[C@H]2NC(=O)OCC(Cl)(Cl)Cl |  | > 100 | > 100 | > 100 | > 100 |  | > 100 | > 100 |  |
| C=CC[C@@]1(C)CCCCCCCCC[C@@](C)(CC=C)C1=O | > 100 | 57.9 | > 100 | 67.5 | 59.1 | 66.7 | > 100 | > 100 | 58.1 |
| O=C=NCCCCCCN1C(=O)N2C(c3ccccc3)N(CCCCCCN=C=O)C(=O)N2C1c1ccccc1 (stereo not given) | > 100 | > 100 | > 100 |  | > 100 | > 100 | > 100 | > 100 | > 100 |
| CC1(C)CC(=O)c2c(nc(SSc3nc4c(c(-c5ccccc5)c3C#N)C(=O)CC(C)(C)C4)c(C#N)c2-c2ccccc2)C1 | > 10 | > 10 | > 10 |  | > 10 | > 10 | > 10 | > 10 | > 10 |
| NC(=Nc1ccc(O)cc1)S(=O)O | > 100 | > 100 | > 100 | > 100 |  | > 100 | > 100 | > 100 | > 100 |
| COc1cc(O)c2c(=O)cc(C3(O)C=CC(=O)C=C3)oc2c1 | 0.493 | 0.586 | 0.578 | 0.786 | 2.06 |  | 1.11 | 3.35 |  |
| Cc1ccc(S(=O)(=O)NC(=O)Nc2ccc(S(N)(=O)=O)cc2S(N)(=O)=O)cc1 | > 100 | > 100 | > 100 | > 100 |  | > 100 | > 100 | > 100 | > 100 |
| COc1ccc(/C=C2\N=C(NN)N=C2Cl)cc1 | > 100 | > 100 | > 100 |  |  | > 100 | > 100 | > 100 | > 100 |
| COc1cc2c(cc1OC)C(N)CC2=O (stereo not given) | > 100 | > 100 | > 100 | > 100 |  | > 100 | > 100 | > 100 |  |
| O=C1NC(N2CCCC(CO)C2)=N/C1=C\c1ccc(Cl)cc1 (stereo not given) | > 100 | > 100 | > 100 | > 100 |  | > 100 | > 100 | > 100 | > 100 |
| COc1c(O)c2c(=O)cc(OC)c3c4c(OC)cc(=O)c5c(O)c(OC)c6c(c(c1C(C(C)=O)C6C(C)O)c23)c54 (stereo not given) | 1.4 | 0.71 | 3.3 | 1.01 | 0.688 | 1.28 | 2.25 |  | 2.57 |
| CC(=O)OC1CC[C@]2(C)C3CC[C@@]4(C)C(CCC4[C@H](C)CCCC(C)C)[C@@H]3CCC2(Br)C1 (stereo not given in full) | > 50 | 26.5 | 16.2 | > 50 | > 50 |  | 33.2 | 24 | 23.2 |
| C=C(Cl)C(=C)CCC(Cl)C(C)C (stereo not given) | > 100 |  | > 100 | > 100 | > 100 | > 100 |  | > 100 | > 100 |
| COc1ccc2c(c1)CCC1=CC3(CCC12C)SCCS3 (stereo not given) | > 10 | > 10 | > 10 | > 10 |  | > 10 | > 10 | > 10 | > 10 |
| O=C(c1ccccc1)c1sc2c(=O)c(C(=O)c3ccccc3)c(C(=O)c3ccccc3)sc2c(=O)c1C(=O)c1ccccc1 | > 100 | > 100 | > 100 | > 100 | > 100 |  | > 100 | > 100 | > 100 |

| Structure (SMILES) | TGI (HOP-92 NSCLC) [µM] | TGI (OVCAR-8 ovarian) [µM] | TGI (SK-MEL-28 melanoma) [µM] | TGI (UACC-62 melanoma) [µM] | TGI (NCI-H460 lung) [µM] | TGI (RPMI-8226 leukemia) [µM] | TGI (HCT-15 colon) [µM] | TGI (OVCAR-4 ovarian) [µM] | TGI (MALME-3M melanoma) [µM] |
| --- | --- | --- | --- | --- | --- | --- | --- | --- | --- |
| Cc1ccc(/C=C/C(=O)c2cc(CN(C)C)c(O)c(CN(C)C)c2)cc1 | 70.8 | 78.9 | 33.6 |  | 26.1 | 48.3 | 45.4 |  | 35.6 |
| NNc1[nH]c(=S)[nH]c1C(N)=O |  | > 100 | > 100 | > 100 | > 100 | > 100 | > 100 | > 100 | > 100 |
| Cc1cn(C2CC(N)C(C(=O)O)O2)c(=O)[nH]c1=O (stereo not given) | > 100 | > 100 |  | > 100 | > 100 | > 100 | > 100 | > 100 | > 100 |
| C/C=C/C(=O)N1C(=O)OC[C@@H]1c1ccccc1 | 37.2 | 38.5 | 45.5 |  |  | 50 | 53.8 | 45.3 | 39.7 |
| COc1cccc(C2C3=C(COC3=O)Oc3cc4c(cc32)OCO4)c1 (stereo not given) |  | 20 | > 100 | > 100 | > 34 | 3.03 | > 42.4 | > 100 | > 100 |
| NC(N)=NCCCC(NC(=O)OCCCCCCn1ccc(N)nc1=O)C(=O)O (stereo not given) | > 100 |  | > 100 | > 100 | > 100 | > 100 | > 100 | > 100 |  |
| COc1ccc([C@@]23OC[C@@H]4[C@@H](OC[C@@H]42)c2cc(OC)c(OC)cc23)cc1OC |  |  | > 100 | > 100 | > 100 | > 100 | > 100 | > 100 | > 100 |
| Cc1cc(OCC(=O)N/N=C/C(Br)=C/c2ccccc2)nc(SCC(=O)N/N=C/C(Br)=C/c2ccccc2)n1 | 86.4 |  | > 100 | > 100 | > 100 | > 100 | > 100 | > 100 |  |
| O=C(O)CCCOc1cc(-c2ccccc2F)nc2cc3c(cc12)OCO3 | 95.6 | > 100 | > 100 | > 100 |  | > 100 | > 100 | > 100 | > 100 |
| Cc1ccc(S(=O)(=O)Oc2nc3ccccc3nc2N(S(=O)(=O)c2ccc(C)cc2)S(=O)(=O)c2ccc(C)cc2)cc1 |  | > 100 | > 100 | > 100 | > 100 | > 100 | > 100 |  | > 100 |
| Cc1ccc(S(=O)(=O)N2CCCC2C(=O)O[C@H]2CC[C@H]3CC=C[C@H]32)cc1 (stereo not given in full) |  | > 100 | 96.7 | > 100 | 91.4 | 77.7 |  | > 100 | > 100 |
| Cc1c(C)c(S(=O)(=O)N(CCCN)OCCCN)c(C)c2c1OC(C)(C)C2 |  | > 100 | > 100 | > 100 | > 100 | > 100 | > 100 | > 100 | 42.1 |
| Cc1c2c(n(CCN(C)C)c1C)NN=C(C#N)S2(=O)=O |  | > 100 | > 100 | > 100 | > 100 | > 100 | > 100 | > 100 | > 100 |
| O=C(/C=C/c1ccc(O)c(O)c1O)OCCc1ccccc1 | > 100 |  | > 100 | > 100 | 42.7 | 52.6 | 51.9 | 29.5 | > 100 |
| Clc1nc2n(c1/C=C/c1cccs1)CCS2 |  | > 100 | > 100 | > 100 |  | 48.7 | > 100 | > 100 | > 100 |
| Cc1ccsc1/C=N/Nc1nncc2ccccc12 | > 100 | > 100 | > 100 | > 100 |  | > 100 | > 100 | > 100 |  |
| Nc1nc(Cl)c2nnn(CC3CCC(CO)C3)c2n1 (stereo not given) | > 100 |  | > 100 | > 100 |  | > 100 | > 100 | > 100 |  |
| O=C(NC(Nc1ccc(F)c(Cl)c1)(C(F)(F)F)C(F)(F)F)OCc1ccccc1 | 95 | > 100 | > 100 | > 100 | > 100 | 61.4 | 94.5 |  | > 100 |
| O=C(Nc1ccccc1F)c1cc2ccc(O)cc2oc1=Nc1cccc(C(F)(F)F)c1 |  | 5.27 | 40.7 | 21 | > 100 | > 100 | 10.9 | 12.9 | 34.9 |
